SMILES strings stand for the structures.

The test system of one data set is PDE7. As to the kind of experiment: Preliminary PDE selectivity evaluation. It is filed as biochemical. As to conditions: 10 µM; data not shown.
Data set [1] relates to human neutrophils. As to the kind of experiment: Neutrophil chemotaxis inhibition (fMLP stimulated). The format is cell-based. As to conditions: data not shown.
Another data set has as its target PDE2 (Homo sapiens, UniProt O00408). The experiment in a line: Preliminary PDE selectivity evaluation. The format is biochemical. To be noted: 10 µM; data not shown.
A further data set relates to PDE1. The experiment in a line: Preliminary PDE selectivity evaluation. The format is biochemical. As to conditions: 10 µM; data not shown.
In data set [2] the test system is human platelets. The experiment in a line: ROS production inhibition in thrombin-stimulated washed platelets (DCFH-DA, flow cytometry). The format is cell-based. To be noted: for IC50: washed human platelets, 0.1 U/mL thrombin, DCFH-DA, mean +/- SD, at least six experiments in duplicate; for activity towards ROS production in platelets (in words): human platelets, thrombin stimulated. As for the experimental part: (§1) Freshly drawn venous blood from healthy volunteers of the “Centro Trasfusionale, Ospedale San Martino” in Genoa was collected into 130 mM aqueous trisodium citrate anticoagulant solution (9:1). The donors claimed to have not taken drugs known to interfere with platelet function during two weeks prior to blood collection and gave their informed consent. Washed platelets were prepared centrifuging whole blood at 100× g for 20 min. The obtained platelet-rich plasma was then centrifuged at 1100× g for 15 min. Pellet was washed once with pH 5.2 ACD solution (75 mM trisodium citrate, 42 mM citric acid and 136 mM glucose), centrifuged at 1100× g for 15 min and then re-suspended in pH 7.4 Hepes buffer (145 mM NaCl, 5 mM KCl, 1 mM MgSO4, 10 mM glucose, 10 mM HEPES).
ROS production was quantified as previously reported by DCFH-DA, a ROS-sensitive probe that yields upon oxidation the fluorescent adduct DCF that is trapped inside the cells. Briefly, washed platelets (1.0 × 10^8/mL), pre-incubated with saline, compounds 4 or 5, for 15 min at 37 °C, were stimulated by 0.1 U/mL thrombin. Incubation was stopped by cooling samples in ice bath and then samples were immediately analyzed in a Merck Millipore Bioscience Guava easyCyte flow cytometer (Merk Millipore, Burlington, MA, USA). The reported IC50 value is the molar concentration of the compound able to obtain 50% inhibition of the […] induced by the agonist and is calculated by the percentage of inhibition that is the inhibition of the […] measured in the presence of the agent compared with that measured in a control sample containing saline, carried out under the same conditions.

In a further data set the test system is PDE3. As to the kind of experiment: Preliminary PDE selectivity evaluation. The format is biochemical. As to conditions: 10 µM; data not shown.
The target in the next data set is T1, PDE4B2 (Homo sapiens, UniProt Q07343).
T1 construct: host or cells: Spodoptera frugiperda (Sf9), baculovirus
T1 sequence (Q07343 1-564 isoform Q07343-2): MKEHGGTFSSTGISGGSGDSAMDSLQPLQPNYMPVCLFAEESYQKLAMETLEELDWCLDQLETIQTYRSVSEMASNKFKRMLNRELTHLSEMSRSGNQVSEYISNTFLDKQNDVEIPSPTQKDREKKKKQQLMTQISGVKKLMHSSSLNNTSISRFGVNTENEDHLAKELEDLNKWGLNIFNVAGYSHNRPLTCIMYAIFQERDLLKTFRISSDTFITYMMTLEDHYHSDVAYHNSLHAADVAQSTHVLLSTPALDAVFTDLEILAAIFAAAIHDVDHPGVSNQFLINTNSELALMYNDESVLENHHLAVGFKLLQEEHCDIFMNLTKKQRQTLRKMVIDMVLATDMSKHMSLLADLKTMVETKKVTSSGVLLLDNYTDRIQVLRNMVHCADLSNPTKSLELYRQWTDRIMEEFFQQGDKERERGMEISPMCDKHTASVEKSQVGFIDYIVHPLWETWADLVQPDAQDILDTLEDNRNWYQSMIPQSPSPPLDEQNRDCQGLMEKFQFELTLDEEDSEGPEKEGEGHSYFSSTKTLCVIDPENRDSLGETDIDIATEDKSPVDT
The experiment in a line: PDE4 enzymatic assay (IMAP fluorescence polarisation). The format is biochemical. As to conditions: for inhibition at 10 µM: in duplicate, read-out: inhibition of PDE4B2, preliminary test; for IC50: human recombinant enzyme. As for the experimental part: (§2) PDE4 tests were performed by Scottish Biomedical Drug Discovery (Scottish, Biomedical Drug Discovery, Glasgow, UK) using human recombinant enzyme obtained from Spodoptera frugiperda (Sf9) cells using a baculovirus expression system (PDE enzyme at 0.5 U/mL in 20 mM Tris.HCl pH 7.4) as previously reported. IMAP technology is based on the high affinity binding of phosphate by immobilized metal coordination complexes on nanoparticles. The binding reagent complexes with phosphate groups on nucleotide monophosphate generated from cyclic nucleotides ([…]) through phosphodiesterases. With fluorescence polarisation detection, binding causes a change in the rate of the molecular motion of the phosphate bearing molecule, and results in an increase in the fluorescence polarization value observed for the fluorescent label attached to the substrate.
(§3) Title compounds 4d and 5d were solved in DMSO at 10^−2 M concentration and then diluted with water to the final suitable concentrations. All our subsequent assays were performed in 3% DMSO (final). All the compounds were tested preliminary at 10 µM concentration, in duplicate.
(§4) In all the experiments, Rolipram as reference compound (at 10 μM for PDE4B2 and 1 μM for PDE4D3) was tested at nine concentrations, in duplicate, to obtain an inhibition curve in order to validate this experiment.
(§5) Being inhibition >50%, 4d and 5d have been further tested in the same assay at five different concentrations (5 × 10^−8–10^−4 M) and IC50 values were determined by nonlinear regression analysis of the inhibition curve, using Hill equation curve fitting (Graph Pad Prism software, version 5.0a).

Data set [3] addresses T2, PDE4D3 (Homo sapiens, UniProt Q08499).
T2 construct: host or cells: Spodoptera frugiperda (Sf9), baculovirus
The data set is described as above. To be noted: for inhibition at 10 µM: in duplicate, read-out: inhibition of PDE4D3, preliminary test; for IC50: human recombinant enzyme. The format is biochemical. As for the experimental part:
as §2, §3, §4, §5

The next data set deals with PDE5 (Homo sapiens, UniProt O76074). The experiment in a line: Preliminary PDE selectivity evaluation. To be noted: 10 µM; data not shown. It is filed as biochemical.
Data set [4] concerns human neutrophils. The experiment in a line: Cell vitality by propidium iodide (PI) method in neutrophils. As to conditions: 10 µM. It is filed as cell-based. The procedure: (§6) In the same test, cell vitality in presence of 4d (10 µM) was assessed by propidium iodide (PI) method at the end of the incubation time. In detail, in the same tubes we added PI staining solution (10 μg/mL, Invitrogen ThermoFisher Scientific, Waltham, MA, USA) to detect dead cells. PI is excited at 488 nm and, emits at a maximum wavelength of 617 nm. Because of these spectral characteristics, PI can be used in combination with other fluorochromes excited at 488 nm such as fluorescein isothiocyanate (FITC). Auto-fluorescence levels of sample were measured and subtracted from each analysis. Data were expressed as mean fluorescence intensity ((MFI), compared with the expression on cells stimulated with control medium alone (defined as 100%)).

Experiment in data set [5]: as above
It is filed as cell-based. To be noted: human, human neutrophils, PI method. The procedure:
as §6

In data set [6] the test system is human neutrophils. The experiment in a line: Flow cytometric evaluation of ROS production in fMLP-activated neutrophils (DCFH-DA). The format is cell-based. As to conditions: for inhibition at 10 µM: Homo sapiens, Neutrophil, DCFH-DA method, read-out: ROS production inhibition percentage; for activity towards ROS production in neutrophils (in words): data not shown. The source says:
Heparinized (heparin 10 U/mL Vister, PfizerItalia, Borgo San Michele, Latina, Italy) venous blood was obtained from healthy male volunteers after written informed consent. Neutrophils were isolated by dextran sedimentation (Dextran 70.000 Plander, Fresenius Kabi Italia, Verona, Italy), and subsequent centrifugation on a Ficoll-Hypaque density gradient (Lympholyte-I from Cedarlane Laboratories Ltd. Hornby, ON, Canada), as described. Contaminating erythrocytes were removed by hypotonic lysis. Neutrophils were washed and resuspended in Hanks’balanced salt solution (HBSS; EuroCLone, Wetherby West, Yorkshire, UK) mixed with Dulbecco’s PBS (EuroClone; HBBS:PBS. Final cell suspensions contained 97% or more neutrophils and more than 98% viable cells, as evaluated by a trypan blue test kit (Sigma Aldrich).
Flow cytometric analysis of neutrophil oxidative metabolism was carried out according to literature method. Briefly, neutrophils, were cultured for 1 h with or without 4d and 5d at different concentration. Thereafter, neutrophils were pre-treated with 2′-7′-dichlorofluorescein-diacetate (DCFH-DA; Sigma, Milan, Italy) ([…]), During the incubation time, DCFH-DA entered into the cells, and it was cleaved by intracellular esterases to give non-fluorescence DCFH trapped within the cells. After washing in PBS, the cells were incubated for 15 min at room temperature in the presence or absence of N-formyl-L-methionin-L-leucyl-L-phenylalanine (fMLP; Sigma, Milan, Italy) ([…]) for 30 min at 37 °C. During this period, intracellular ROS oxidized DCFH to give a green fluorescence […]. The reaction was stopped by keeping the samples on ice before being analyzed by flow cytometry (FC500, Beckman Coulter).

In data set [7] the test system is human platelets. As to the kind of experiment: Platelet aggregation inhibition (Born's method, thrombin-stimulated washed platelets). The format is cell-based. To be noted: Platelet, 0.1 U/mL thrombin, mean +/- SD, at least six experiments in duplicate. As for the experimental part:
as §1
Platelet aggregation was performed in a Bio-Data Aggregometer (Bio-Data Corporation, Horsham, PA, USA) according to Born’s method and quantified by the light transmission reached within 6 min at 37 °C. Briefly, washed platelets (3.0 × 10^8/mL) were pre-incubated for 3 min at 37 °C with saline, compound 4 or 5 before the addition of 0.1 U/mL thrombin. The IC50 values were calculated as above detailed.

The subject of data set [8] is PDE4D3. To be noted: Figure 2; cited from earlier work.

T2 sequence (Q08499 1-673 isoform Q08499-2): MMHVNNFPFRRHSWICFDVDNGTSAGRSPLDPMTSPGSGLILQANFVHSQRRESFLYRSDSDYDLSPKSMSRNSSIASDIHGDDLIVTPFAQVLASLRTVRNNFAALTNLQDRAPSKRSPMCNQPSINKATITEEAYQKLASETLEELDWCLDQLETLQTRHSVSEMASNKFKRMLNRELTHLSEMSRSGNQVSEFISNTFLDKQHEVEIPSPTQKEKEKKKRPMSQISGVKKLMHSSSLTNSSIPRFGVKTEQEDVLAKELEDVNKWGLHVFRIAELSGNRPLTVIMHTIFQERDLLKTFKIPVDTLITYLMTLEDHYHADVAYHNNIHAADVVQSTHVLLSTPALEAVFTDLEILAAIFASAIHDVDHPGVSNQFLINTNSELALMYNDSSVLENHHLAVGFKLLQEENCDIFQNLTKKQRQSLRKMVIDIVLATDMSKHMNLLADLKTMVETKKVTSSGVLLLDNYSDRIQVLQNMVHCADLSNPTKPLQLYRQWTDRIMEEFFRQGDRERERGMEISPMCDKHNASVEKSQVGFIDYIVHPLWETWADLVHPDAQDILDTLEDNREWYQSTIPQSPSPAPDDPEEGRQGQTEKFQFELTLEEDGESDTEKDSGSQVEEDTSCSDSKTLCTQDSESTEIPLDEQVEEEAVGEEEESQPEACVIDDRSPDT
PDE2, sequence (O00408 whole entry): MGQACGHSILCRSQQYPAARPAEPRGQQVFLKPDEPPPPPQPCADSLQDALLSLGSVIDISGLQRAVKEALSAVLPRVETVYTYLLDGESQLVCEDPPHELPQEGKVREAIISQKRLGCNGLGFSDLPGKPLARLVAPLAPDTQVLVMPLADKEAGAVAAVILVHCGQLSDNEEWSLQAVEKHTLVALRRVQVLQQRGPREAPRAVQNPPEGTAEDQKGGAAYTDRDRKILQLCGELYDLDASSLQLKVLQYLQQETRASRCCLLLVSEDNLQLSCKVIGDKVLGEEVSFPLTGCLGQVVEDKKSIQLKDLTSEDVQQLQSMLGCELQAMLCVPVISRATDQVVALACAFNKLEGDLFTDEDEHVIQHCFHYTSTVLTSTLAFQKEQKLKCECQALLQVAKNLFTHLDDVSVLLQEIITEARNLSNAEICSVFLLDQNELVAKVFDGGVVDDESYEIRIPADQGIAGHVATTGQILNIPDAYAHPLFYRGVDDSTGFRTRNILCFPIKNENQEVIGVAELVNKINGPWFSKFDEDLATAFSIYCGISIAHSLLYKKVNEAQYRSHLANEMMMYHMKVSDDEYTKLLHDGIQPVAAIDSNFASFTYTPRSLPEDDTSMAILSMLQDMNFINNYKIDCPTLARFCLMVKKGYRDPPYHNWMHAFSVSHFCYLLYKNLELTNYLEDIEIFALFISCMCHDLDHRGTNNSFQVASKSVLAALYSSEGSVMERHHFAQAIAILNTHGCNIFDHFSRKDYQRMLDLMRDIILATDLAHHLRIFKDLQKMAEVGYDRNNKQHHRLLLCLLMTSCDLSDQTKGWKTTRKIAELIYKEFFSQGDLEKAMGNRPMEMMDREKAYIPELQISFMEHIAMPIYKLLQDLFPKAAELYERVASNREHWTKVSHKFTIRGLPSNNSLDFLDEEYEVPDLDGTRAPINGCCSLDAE

`COc1ccc(/C=N/NC(=O)c2cnn(CC(O)c3ccccc3)c2N)cc1OC1CCCC1` (centres unmarked) [4d, (E)-5-Amino-N′-(3-(cyclopentyloxy)-4-methoxybenzylidene)-1-(2-hydroxy-2-phenylethyl)-1H-pyrazole-4-carbohydrazide]: in the data set with PDE7, the “inhibition of PDE7” value is given as “no inhibition”. The chemotaxis inhibition entry in the data set on human neutrophils [1] is “very low or absent”. Further, the “inhibition of PDE2” value against PDE2 was “no inhibition”. The “inhibition of PDE1” value with PDE1 is “no inhibition”. The IC50 in the data set with human platelets [2] (Homo sapiens, Platelet) came out at 40 µM; in the data set with human platelets [2], 38.3 ± 2.8 µM; on PDE4B2, 0.55 µM; at PDE4D3 [3], 1.05 µM; in the data set on human platelets [7], 29.8 ± 3.7 µM. Also, the “inhibition of PDE3” value in the data set on PDE3 is recorded as “no inhibition”. The inhibition at 10 µM on PDE4B2 was greater than 50%; on PDE4D3 [3] it was greater than 50%; with human neutrophils [6], 68%. Further, at PDE5, the “inhibition of PDE5” value was “no inhibition”. In addition, the “cytotoxic action (PI method)” value in the data set with human neutrophils [4] is “no cytotoxic action”. In addition, in data set [5], the viability at 10 µM is greater than 95%.

As to `COc1ccc(/C=N/NC(=O)c2cnn3c2NC(c2ccccc2)C3)cc1OC1CCCC1` (centres unmarked) [5d, (E)-N′-(3-(cyclopentyloxy)-4-methoxybenzylidene)-2-phenyl-2,3-dihydro-1H-imidazo[1,2-b]pyrazole-7-carbohydrazide], the chemotaxis inhibition entry in the data set on human neutrophils [1] is given as “very low or absent”. Moreover, the IC50 came to 70.6 ± 7.4 µM with human platelets [2] (Homo sapiens, Platelet); 0.55 µM on PDE4B2; 1.22 µM on PDE4D3 [3]; 71 ± 6.8 µM with human platelets [7]. Besides, the inhibition at 10 µM on PDE4B2 was greater than 50%; at PDE4D3 [3], greater than 50%; in the data set with human neutrophils [6], 63%. In addition, the “cytotoxic action (PI method)” value with human neutrophils [4] is reported as “no cytotoxic action”.

As to `COc1ccc(/C=N/OCC(O)CN2CC(C)OC(C)C2)cc1OC1CCCC1` (centres unmarked) [GEBR-4a], in the data set on PDE4D3 [8], the IC50 was 2.8 µM.

Consider `COc1ccc(-c2ccn(CC(O)CN3CCOCC3)n2)cc1OC1CCCC1` (centres unmarked) [GEBR-54], for which the IC50 in the data set on PDE4D3 [8] was 7.6 µM.

On to `NNC(=O)c1cnn(CC(O)c2ccccc2)c1N` (centres unmarked) [compound 7, 5-Amino-1-(2-hydroxy-2-phenylethyl)-1H-pyrazole-4-carbohydrazide], for which the melting point lay in the range of 183 to 184 °C. In the data set on human platelets [2], the “activity towards ROS production in platelets (in words)” value is “completely inactive”. For the same compound, the “activity towards ROS production in neutrophils (in words)” value in the data set on human neutrophils [6] is “completely inactive”.

As for `NNC(=O)c1cnn2c1NC(c1ccccc1)C2` (centres unmarked) [compound 12, 2-Phenyl-2,3-dihydro-1H-imidazo[1,2-b]pyrazole-7-carbohydrazide], the “activity towards ROS production in platelets (in words)” value with human platelets [2] was “completely inactive”. In addition, in the data set with human neutrophils [6], the “activity towards ROS production in neutrophils (in words)” value was “completely inactive”.

The values are drawn from publication PMC7070443, “New Hybrid Pyrazole and Imidazopyrazole Antinflammatory Agents Able to Reduce ROS Production in Different Biological Targets” (Molecules, 2020).
